Where a name gives a salt, the structure may show the parent alone. Read-outs that look alike come from different tables or passages of the source.
Assays:
[1] = tested on: Mycobacterium terrae bacteria; test: bacterial suspension test; format: cell-based; conditions: for Germicidal Efficacy: summary Table 14
Protocol: In Examples 1 to 3, which follow, several germicidal solutions containing either the 4-fluoro-, 4-chloro-, or 4-bromo-phthalaldehyde compound were tested to determine their effectiveness in killing at least 1×10^6/mL of Mycobacterium terrae bacteria using a bacterial suspension test. The bacterial suspension test that was employed is described in Section VII.
The solutions were prepared by adding the appropriate amounts of the germicidal compounds to an aqueous solution. Unless otherwise mentioned all concentrations reported herein are expressed in (w/v)%. The pH of the solution was not adjusted. The tests were conducted at a temperature of about 20° C. (room temperature). The results are presented in terms of log reductions/mL. It is understood that these examples, as well as the other examples herein, are to be construed as merely illustrative, and not limiting.
In this test method, 9 mL of the germicide to be tested is placed in a tube, put into a water bath and allowed to come to the desired temperature. One mL of the test organism, including at least 7 logs/mL of Mycobacterium terrae bacteria, is added to the 9 mL of the germicide to be tested. […] It will be appreciated by those skilled in the art that other concentrations may be utilized by proper dilution and accounting.
At appropriate time intervals, 1 mL aliquots of the germicide-cell suspension were removed and added directly into 9 mL of a 1% glycine solution (neutralizer) and mixed thoroughly to neutralize the germicide in the transferred suspension. The glycine solution was prepared from solid glycine, which is available from VWR Scientific Products, among others. The above-identified 10 mL neutralized solution was then poured through a membrane filter having an average pore size of 0.45 micrometers. The filter was then rinsed twice with at least 150 mL of the 1% glycine solution per rinse. The filter was then placed on an agar plate and incubated for twenty-one days at 37° C. In the above procedure, if dilution was needed, then the 1 mL germicidal-cell suspension was diluted in 99 mL of a phosphate buffer before addition to the 9 mL of the 1% glycine solution. The phosphate buffer was DiLu-LoK™ Butterfields Phosphate Buffer, available from Hardy Diagnostics, of Santa Maria, Calif.
The surviving colonies are then counted. The data is plotted as S/So vs. time. So is the initial count of the bacteria in the above 10 mL solution which is at least 10^6 bacteria/mL, and S is the surviving bacteria from the above filter on the agar plate. The results of the experiments were presented in terms of log reductions. Log reduction is the difference between log(So) and log(S). As one example, if log(So)=6.2, and if there were 100 survivors, then the log(S)=2, and the log reduction was reported as 4.2.

[2] = solubility in water; conditions: for Concentration, Saturated: saturated aqueous germicidal solution, pH not adjusted

With 4-pyridinyl-propanedial the “Log Reductions/mL” value ([1]; Saturated (˜2.3% w/v), 5 min, 20° C.) was 4.0 log reductions/mL and the “Concentration, Saturated” value [2] was “(˜2.3%) w/v %”.

With O=CC(c1ccccc1)C(O)S(=O)(=O)[O-].[Na+] (stereo not shown) [1-hydroxy-3-oxo-2-phenyl-propane-1-sulfonic acid, sodium salt] the “Log Reductions/mL” value ([1]; 0.6%, 20° C., 60 min, sodium salt) was “Total Kill”, the “Log Reductions/mL” value ([1]; 2.5%, 20° C., 10 min, sodium salt) was “Total Kill” and the “Log Reductions/mL” value ([1]; 2.5%, 20° C., 30 min) was “Total Kill”. For the same molecule, the “Log Reductions/mL” value ([1]; 9.4%, 20° C., 30 min) was “Total Kill”, the log reduction at 0.6 % ([1]; Mycolicibacter terrae, 0.25 h, 0.6%, 20° C., 15 min, read-out: Log Reductions/mL) was 2.4 and the log reduction at 0.6 % ([1]; Mycolicibacter terrae, 0.5 h, 0.6%, 20° C., 30 min, read-out: Log Reductions/mL) was 3.5.

With O=CC(c1nc2ccccc2o1)C(O)S(=O)(=O)O (stereo not shown) [2-benzooxazol-2-yl-1-hydroxy-3-oxo-propane-1-sulfonic acid, sodium salt] the log reduction at 11.1 % ([1]; Mycolicibacter terrae, 1 h, 11.1%, 20° C., 60 min, read-out: Log Reductions/mL) was 5.

With O=CC(C=O)c1cccc(C(=O)O)c1[N+](=O)[O-] [3-(1-formyl-2-oxoethyl)-2-nitro-benzoic acid] the “Concentration, Saturated” value [2] was “(˜2.1%) w/v %”.

For O=Cc1ccc(Br)cc1C=O [4-bromo-phthalaldehyde], the “Log Reductions/mL” value ([1]; 0.1%, 20° C., 30 minutes) was “Total Kill” and the log reduction at 0.1 % ([1]; Mycolicibacter terrae, 10 min, 0.1%, 20° C., 10 minutes, read-out: Log Reductions/mL) was 5.6.

In the case of O=Cc1ccc(Cl)cc1C=O [4-chloro-phthalaldehyde], the “Log Reductions/mL” value ([1]; 2.7 w/v % in 20% isopropanol, 20° C., 5 min) is reported as “Total Kill” and the log reduction at 0.2 % ([1]; Mycolicibacter terrae, 5 min, 0.2 w/v %, 20° C., 5 min, read-out: Log Reductions/mL) is reported as 5.9.

In the case of O=Cc1ccc(F)cc1C=O [4-fluoro-phthalaldehyde], the “Log Reductions/mL” value ([1]; 0.25%, 20° C., 60 minutes) is reported as “Total Kill” and the log reduction at 0.25 % ([1]; Mycolicibacter terrae, 0.5 h, 0.25%, 20° C., 30 minutes, read-out: Log Reductions/mL) is reported as 5.6.

For O=Cc1ccccc1C(O)S(=O)(=O)[O-].[Na+] (stereo not shown) [(2-formyl-phenyl)-hydroxy-methane sulfonic acid, sodium salt], the “Log Reductions/mL” value ([1]; 9.1%, 20° C., 5 min, listed as (2-formyl-phenyl)-hydroxy-methane sulfonate, sodium salt) was “confluent”, the “Log Reductions/mL” value ([1]; 9.1%, 20° C., 5 min, listed as H-SULF, sodium salt) was “Confluent” and the log reduction at 8.9 % ([1]; Mycolicibacter terrae, 0.5 h, 20° C., 30 min, read-out: Log Reductions/mL) was 2. It also gave a log reduction at 8.9 % ([1]; Mycolicibacter terrae, 1 h, 20° C., 60 min, read-out: Log Reductions/mL) of 3.5 and a log reduction at 8.9 % ([1]; Mycolicibacter terrae, 2 h, 20° C., 120 min, read-out: Log Reductions/mL) of 5.7.

In the case of O=Cc1cccc(C=O)c1 [IPA, isophthalaldehyde, reference compound], the “Log Reductions/mL” value ([1]; 0.3%, dissolved in 20% isopropanol, 20° C., 5 min (Table 11)) is reported as “Confluent”, the “Log Reductions/mL” value ([1]; 0.3%, dissolved in 20% isopropanol, 20° C., 5 min (Table 15)) is reported as “Confluent” and the “Germicidal Efficacy” value [1] is reported as “Poor”.

O=Cc1ccccc1C=O [OPA, phthalaldehyde] showed a log reduction at 0.08 % ([1]; Mycolicibacter terrae, 0.5 h, 0.08%, 20° C., 30 min, read-out: Log Reductions/mL) of 3.1, a log reduction at 0.1 % ([1]; Mycolicibacter terrae, 0.5 h, 0.10%, 20° C., 30 min, read-out: Log Reductions/mL) of 3.4 and a log reduction at 0.14 % ([1]; Mycolicibacter terrae, 0.5 h, 0.14%, 20° C., 30 min, read-out: Log Reductions/mL) of 5.8. The “Germicidal Efficacy” value [1] was “Good” and the solubility in water [2] was “about 5 % by weight”.

In the case of O=Cc1ccc(C=O)cc1 [TPA, terephthaladehyde, reference compound], the “Log Reductions/mL” value ([1]; 0.2%, dissolved in 20% isopropanol, 20° C., 5 min) is reported as “Confluent” and the “Germicidal Efficacy” value [1] is reported as “Poor”.

With O=CC(C=O)c1ccccc1 [phenyl-propanedial] the “Log Reductions/mL” value ([1]; 0.4%, 20° C., 60 min) was “Total Kill”, the “Log Reductions/mL” value ([1]; 0.7%, 20° C., 15 min) was “Total Kill” and the kill ([1]; 1% solution, 5 minutes, 20° C.) was “more than 4 logs”. The log reduction at 0.3 % ([1]; Mycolicibacter terrae, 1 h, 0.3%, 20° C., 60 min, read-out: Log Reductions/mL) was 3.7, the log reduction at 0.33 % ([1]; Mycolicibacter terrae, 1 h, 0.33%, 20° C., 60 min, read-out: Log Reductions/mL) was 3.7 and the solubility in water [2] was “about 1%”.
